Source: article PMC4399336 (2015)

System: 15 base pair dsDNA, double labeled (Alexa488 / Alexa568) (DNA, duplex) GGAGACCAGAGGCCT/AGGCCTCTGGTCTCC
Assay: FRET and fluorescence lifetime titration (donor 517 nm, acceptor 600 nm)
Conditions: 20 °C; 1 μM DNA; intercalation, qualitative; end-to-end distance ratio r1/r0 1.028; buffer not stated

binding: yes
SMILES: [Ru+2].c1ccc(-c2ccccn2)nc1.c1ccc(-c2ccccn2)nc1.c1ccc2nc3c4cccnc4c4ncccc4c3nc2c1
